Experimental data as given in patent US20250388575A1, “HETEROBIFUNCTIONAL COMPOUNDS AND METHODS OF TREATING DISEASE” (Halda Therapeutics OpCo, Inc., priority 2022, published 2025).
Like-named read-outs stand apart in the source and are kept apart here.

Tests used:
T47D cells = experiment: Cellular growth inhibition assay for T47D cells, CellTiter-Glo; assay type: cell-based, human; conditions: 72 hours treatment, CellTiter-Glo 2.0
In short: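 Luminescence from CellTiter-Glo 2.0 after 72 h of compound exposure gives the viability signal. Cells grew in insulin-supplemented (0.2 units/mL) DMEM with 10% FBS and were treated one day after seeding at 0.5% DMSO. GI50 values come from four-parameter nonlinear regression.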

[1] = test system: T-Rex 293 cell line SC3 cells lacking increased expression of androgen receptor protein; experiment: Cellular growth inhibition, T-Rex 293 SC3 cells lacking increased androgen receptor expression (no doxycycline), CellTiter-Glo; assay type: cell-based; conditions: T-Rex 293 SC3 cells lacking increased androgen receptor expression (not exposed to doxycycline), 72 hours, CellTiter-Glo; read-out: GI50
In short: (§1)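 SC3, a T-Rex 293 clone with doxycycline-inducible wild-type androgen receptor, was seeded in phenol red-free DMEM with 10% charcoal-dextran FBS, with or without 10 ng/mL doxycycline. Compound added at 24 h (0.5% DMSO) for 72 h at 37° C. CellTiter-Glo 2.0 luminescence; GI50 from four-parameter fit.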

[2] = test system: T-Rex 293 cell line SC3 cells having increased expression of androgen receptor protein; experiment: Cellular growth inhibition, T-Rex 293 SC3 cells with increased androgen receptor expression (doxycycline), CellTiter-Glo; assay type: cell-based; conditions: T-Rex 293 SC3 cells with increased androgen receptor expression (exposed to 10 ng/mL doxycycline), 72 hours, CellTiter-Glo; read-out: GI50
In short: as §1

VCaP cells = experiment: Cellular growth inhibition assay for VCaP cells, CellTiter-Glo; assay type: cell-based, human; conditions: VCaP cells, 72 hours, CellTiter-Glo, read-out: GI50
In short: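 GI50 values come from four-parameter curve fits of luminescence data normalized to a zero baseline. Compound, in medium with 0.5% DMSO, was added one day after plating and left for 72 h before CellTiter-Glo 2.0 addition.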

Structure (SMILES)	GI50 (T47D cells; Homo sapiens)	GI50 [1]	GI50 [2]	GI50 (VCaP cells; Homo sapiens)	GI50 (T47D cells)	GI50 (VCaP cells)
Cn1cc(-c2cc(C(C)(C)O)ccc2O[C@H]2C[C@H](N(C)CC3CCN(c4ccc(C(=O)N[C@H]5CC[C@H](Oc6ccc(C#N)c(Cl)c6)CC5)nn4)CC3)C2)c2cc[nH]c2c1=O [I-158, N-((1r,4r)-4-(3-chloro-4-cyanophenoxy)cyclohexyl)-6-(4-((((1r,3r)-3-(4-(2-hydroxypropan-2-yl)-2-(6-methyl-7-oxo-6,7-dihydro-1H-pyrrolo[2,3-c]pyridin-4-yl)phenoxy)cyclobutyl)(methyl)amino)methyl)piperidin-1-yl)pyridazine-3-carboxamide]	< 500 nM	< 500 nM	< 500 nM	< 500 nM		
CCS(=O)(=O)Nc1ccc(Oc2cccc(OCCOC3CCN(c4ccc(C(=O)N[C@H]5CC[C@H](Oc6ccc(C#N)c(Cl)c6)CC5)nn4)CC3)c2)c(-c2cn(C)c(=O)c3[nH]ccc23)c1 [I-1, N-[4-(3-chloro-4-cyano-phenoxy)cyclohexyl]-6-[4-[2-[3-[4-(ethylsulfonylamino)-2-(6-methyl-7-oxo-1H-pyrrolo[2,3-c]pyridin-4-yl)phenoxy]phenoxy]ethoxy]-1-piperidyl]pyridazine-3-carboxamide]	< 500 nM	< 500 nM	< 500 nM	< 500 nM		
CCS(=O)(=O)c1ccc(Oc2cccc(CCCOC3CC4(C3)CN(c3ccc(C(=O)N[C@H]5CC[C@H](Oc6ccc(C#N)c(Cl)c6)CC5)nn3)C4)c2F)c(-c2cn(C)c(=O)c3[nH]ccc23)c1 [I-46]	< 500 nM	< 500 nM	< 500 nM	< 500 nM		
CCS(=O)(=O)c1ccc(Oc2cccc(CCC3CCN(c4ccc(C(=O)N[C@H]5CC[C@H](Oc6ccc(C#N)c(Cl)c6)CC5)nn4)CC3)c2F)c(-c2cn(C)c(=O)c3[nH]ccc23)c1 [I-51]	< 500 nM	< 500 nM	< 500 nM	< 500 nM		
Cn1cc(-c2cc(C(C)(C)O)ccc2Oc2ccc(OC3CN(c4ccc(C(=O)N[C@H]5CC[C@H](Oc6ccc(C#N)c(Cl)c6)CC5)nn4)C3)cc2)c2cc[nH]c2c1=O [I-95, N-[4-(3-chloro-4-cyano-phenoxy)cyclohexyl]-6-[3-[4-[4-(1-hydroxy-1-methyl-ethyl)-2-(6-methyl-7-oxo-1H-pyrrolo[2,3-c]pyridin-4-yl)phenoxy]phenoxy]azetidin-1-yl]pyridazine-3-carboxamide]	500 to 1500 nM	< 500 nM	< 500 nM	< 500 nM		
CCS(=O)(=O)c1ccc(Oc2cccc(CCCC3CCN(c4ccc(C(=O)N[C@H]5CC[C@H](Oc6ccc(C#N)c(Cl)c6)CC5)nn4)CC3)c2F)c(-c2cn(C)c(=O)c3[nH]ccc23)c1 [I-52]		< 500 nM	< 500 nM		< 500 nM	< 500 nM
Cn1cc(-c2cc(C(C)(C)O)ccc2Oc2c(F)cc(CCOC3CCN(c4ccc(C(=O)N[C@H]5CC[C@H](Oc6ccc(C#N)c(Cl)c6)CC5)nn4)CC3)cc2F)c2cc[nH]c2c1=O [I-109]	< 500 nM	< 500 nM	< 500 nM	< 500 nM		
Cn1cc(-c2cc(C(C)(C)O)ccc2Oc2ccc(CCC3CCN(c4ccc(C(=O)N[C@H]5CC[C@H](Oc6ccc(C#N)c(Cl)c6)CC5)nn4)CC3)cc2)c2cc[nH]c2c1=O [I-102]		500 to 1500 nM	< 500 nM			< 500 nM
CCS(=O)(=O)c1ccc(Oc2cc(F)c(CCC3CCN(c4ccc(C(=O)N[C@H]5CC[C@H](Oc6ccc(C#N)c(Cl)c6)CC5)nn4)CC3)cc2F)c(-c2cn(C)c(=O)c3[nH]ccc23)c1 [I-59]		< 500 nM	< 500 nM		< 500 nM	< 500 nM
